Measurements: publication PMC9186362, “Design and biological evaluation of substituted 5,7-dihydro-6H-indolo[2,3-c]quinolin-6-one as novel selective Haspin inhibitors” (Journal of Enzyme Inhibition and Medicinal Chemistry, 2022)

What was measured:
Assay in all cases: SelectScreen ZLYTE
Type in all cases: biochemical
[1] = biological target: T1, AMPK (A2/B1/G3) (Homo sapiens, UniProt P54646); conditions: ATP Km, read-out: Percentage of inhibition
T1 construct: purchased Life Technologies (SelectScreen Whole Panel service)
Protocol: (§1) We further evaluated the selectivity profile of compound 55 on a larger panel of kinases (SelectScreen Whole Panel, Life Technologies). The inhibition profile of 55, evaluated at 1 μM, is depicted on a dendrogram on Figure 3 where kinases inhibited by a minimum of 80% are shown. A full list of the kinases tested is shown on Table S1 in supplementary information.

[2] = biological target: T2, SGKL (SGK3) (Homo sapiens, UniProt Q96BR1); conditions: ATP Km, read-out: Percentage of inhibition
T2 construct: purchased Life Technologies (SelectScreen)
Protocol: as §1

[3] = biological target: T3, PTK2B (FAK2) (Homo sapiens, UniProt Q14289); conditions: ATP Km, read-out: Percentage of inhibition
T3 construct: purchased Life Technologies (SelectScreen Whole Panel service)
Protocol: as §1

[4] = biological target: T4, ZAP70 (Homo sapiens, UniProt P43403); conditions: ATP Km, read-out: Percentage of inhibition
T4 construct: purchased Life Technologies (SelectScreen Whole Panel)
T4 sequence (P43403 whole entry): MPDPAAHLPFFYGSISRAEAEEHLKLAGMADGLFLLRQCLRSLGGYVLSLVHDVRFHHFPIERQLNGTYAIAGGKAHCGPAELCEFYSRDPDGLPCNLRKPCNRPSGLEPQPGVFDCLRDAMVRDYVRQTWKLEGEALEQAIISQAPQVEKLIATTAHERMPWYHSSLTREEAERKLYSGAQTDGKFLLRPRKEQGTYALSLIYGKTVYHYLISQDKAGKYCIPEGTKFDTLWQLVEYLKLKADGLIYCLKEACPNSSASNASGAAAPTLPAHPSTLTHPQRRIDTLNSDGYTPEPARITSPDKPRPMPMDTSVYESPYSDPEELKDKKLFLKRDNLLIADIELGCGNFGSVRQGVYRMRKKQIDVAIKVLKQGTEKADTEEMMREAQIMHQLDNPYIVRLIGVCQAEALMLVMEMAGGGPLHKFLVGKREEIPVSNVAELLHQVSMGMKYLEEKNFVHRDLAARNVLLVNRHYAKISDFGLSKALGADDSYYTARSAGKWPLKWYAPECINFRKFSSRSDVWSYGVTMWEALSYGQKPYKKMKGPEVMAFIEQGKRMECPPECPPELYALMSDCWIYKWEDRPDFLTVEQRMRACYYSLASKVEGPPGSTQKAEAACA
Protocol: as §1

[5] = biological target: T5, CAMK1D (CaMKI delta) (Homo sapiens, UniProt Q8IU85); conditions: ATP Km, read-out: Percentage of inhibition
T5 construct: purchased Life Technologies (SelectScreen)
Protocol: as §1

[6] = biological target: T6, PLK3 (Homo sapiens, UniProt Q9H4B4); conditions: ATP Km, read-out: Percentage of inhibition
T6 construct: purchased Life Technologies (SelectScreen service)
Protocol: as §1

[7] = biological target: T7, HIPK2 (Homo sapiens, UniProt Q9H2X6); conditions: ATP Km, read-out: Percentage of inhibition
T7 construct: purchased Life Technologies (SelectScreen service)
Protocol: as §1

[8] = biological target: T8, PLK1 (Homo sapiens, UniProt P53350); conditions: ATP Km, read-out: Percentage of inhibition
T8 construct: purchased Life Technologies (SelectScreen Whole Panel service)
Protocol: as §1

[9] = biological target: T9, CDK18/cyclin Y (Homo sapiens, UniProt Q07002); conditions: ATP Km, read-out: Percentage of inhibition
T9 construct: purchased Life Technologies
Protocol: as §1

[10] = biological target: T10, PRKCB1 (PKC beta I) (Homo sapiens, UniProt P05771); conditions: ATP Km, read-out: Percentage of inhibition
T10 construct: purchased Life Technologies (SelectScreen)
Protocol: as §1

[11] = biological target: AKT2 (PKB beta) (Homo sapiens, UniProt P31751); conditions: ATP Km, read-out: Percentage of inhibition
Protocol: as §1

[12] = biological target: PAK1 (Homo sapiens, UniProt Q13153); conditions: ATP Km, read-out: Percentage of inhibition
Protocol: as §1

[13] = biological target: T11, MET (cMet) Y1235D (Homo sapiens, UniProt P08581, Y1235D); conditions: ATP Km, read-out: Percentage of inhibition
T11 construct: purchased Life Technologies
T11 sequence (P08581 25-1390 Y1235D): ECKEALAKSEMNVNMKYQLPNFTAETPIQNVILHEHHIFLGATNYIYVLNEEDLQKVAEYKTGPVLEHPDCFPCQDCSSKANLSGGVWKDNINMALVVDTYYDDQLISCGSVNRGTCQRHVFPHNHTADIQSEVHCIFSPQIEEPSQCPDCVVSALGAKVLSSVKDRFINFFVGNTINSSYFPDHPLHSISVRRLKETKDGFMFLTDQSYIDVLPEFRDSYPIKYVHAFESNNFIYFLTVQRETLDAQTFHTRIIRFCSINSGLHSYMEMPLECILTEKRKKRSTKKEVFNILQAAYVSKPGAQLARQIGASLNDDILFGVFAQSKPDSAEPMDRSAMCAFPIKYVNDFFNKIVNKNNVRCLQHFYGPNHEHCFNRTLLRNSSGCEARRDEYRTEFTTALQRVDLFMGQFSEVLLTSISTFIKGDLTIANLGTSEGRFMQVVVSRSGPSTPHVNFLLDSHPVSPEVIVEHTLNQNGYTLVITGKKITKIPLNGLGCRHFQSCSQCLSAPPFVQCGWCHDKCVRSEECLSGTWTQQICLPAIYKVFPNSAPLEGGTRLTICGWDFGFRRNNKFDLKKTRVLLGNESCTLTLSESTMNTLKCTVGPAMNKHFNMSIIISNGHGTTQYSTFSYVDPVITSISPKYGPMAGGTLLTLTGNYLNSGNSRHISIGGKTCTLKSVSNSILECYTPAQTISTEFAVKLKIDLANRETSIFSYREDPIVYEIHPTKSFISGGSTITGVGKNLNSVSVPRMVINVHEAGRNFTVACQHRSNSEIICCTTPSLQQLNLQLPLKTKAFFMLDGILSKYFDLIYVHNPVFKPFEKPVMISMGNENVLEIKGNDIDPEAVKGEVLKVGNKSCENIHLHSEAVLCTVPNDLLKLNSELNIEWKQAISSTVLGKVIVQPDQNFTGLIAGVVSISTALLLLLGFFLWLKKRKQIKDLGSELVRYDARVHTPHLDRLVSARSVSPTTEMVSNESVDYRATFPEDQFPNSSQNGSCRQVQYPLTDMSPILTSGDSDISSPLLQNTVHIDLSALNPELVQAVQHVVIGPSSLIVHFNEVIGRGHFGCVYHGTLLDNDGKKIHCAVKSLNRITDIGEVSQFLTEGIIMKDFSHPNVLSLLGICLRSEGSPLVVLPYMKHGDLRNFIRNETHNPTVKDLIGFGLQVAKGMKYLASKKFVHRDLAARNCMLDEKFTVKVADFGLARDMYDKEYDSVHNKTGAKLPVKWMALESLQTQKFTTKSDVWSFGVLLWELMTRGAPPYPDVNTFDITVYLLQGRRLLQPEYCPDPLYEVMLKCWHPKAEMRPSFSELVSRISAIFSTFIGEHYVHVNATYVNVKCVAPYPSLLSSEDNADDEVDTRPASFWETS
Protocol: as §1

[14] = biological target: CSNK1E (CK1 epsilon) R178C (Homo sapiens, UniProt P49674, R178C); conditions: ATP Km, read-out: Percentage of inhibition
Protocol: as §1

[15] = biological target: T12, PAK6 (Homo sapiens, UniProt Q9NQU5); conditions: ATP Km, read-out: Percentage of inhibition
T12 construct: purchased Life Technologies
Protocol: as §1

[16] = biological target: MST1R (RON) (Homo sapiens, UniProt Q04912); conditions: ATP Km, read-out: Percentage of inhibition
MST1R (RON), sequence (Q04912 25-1400): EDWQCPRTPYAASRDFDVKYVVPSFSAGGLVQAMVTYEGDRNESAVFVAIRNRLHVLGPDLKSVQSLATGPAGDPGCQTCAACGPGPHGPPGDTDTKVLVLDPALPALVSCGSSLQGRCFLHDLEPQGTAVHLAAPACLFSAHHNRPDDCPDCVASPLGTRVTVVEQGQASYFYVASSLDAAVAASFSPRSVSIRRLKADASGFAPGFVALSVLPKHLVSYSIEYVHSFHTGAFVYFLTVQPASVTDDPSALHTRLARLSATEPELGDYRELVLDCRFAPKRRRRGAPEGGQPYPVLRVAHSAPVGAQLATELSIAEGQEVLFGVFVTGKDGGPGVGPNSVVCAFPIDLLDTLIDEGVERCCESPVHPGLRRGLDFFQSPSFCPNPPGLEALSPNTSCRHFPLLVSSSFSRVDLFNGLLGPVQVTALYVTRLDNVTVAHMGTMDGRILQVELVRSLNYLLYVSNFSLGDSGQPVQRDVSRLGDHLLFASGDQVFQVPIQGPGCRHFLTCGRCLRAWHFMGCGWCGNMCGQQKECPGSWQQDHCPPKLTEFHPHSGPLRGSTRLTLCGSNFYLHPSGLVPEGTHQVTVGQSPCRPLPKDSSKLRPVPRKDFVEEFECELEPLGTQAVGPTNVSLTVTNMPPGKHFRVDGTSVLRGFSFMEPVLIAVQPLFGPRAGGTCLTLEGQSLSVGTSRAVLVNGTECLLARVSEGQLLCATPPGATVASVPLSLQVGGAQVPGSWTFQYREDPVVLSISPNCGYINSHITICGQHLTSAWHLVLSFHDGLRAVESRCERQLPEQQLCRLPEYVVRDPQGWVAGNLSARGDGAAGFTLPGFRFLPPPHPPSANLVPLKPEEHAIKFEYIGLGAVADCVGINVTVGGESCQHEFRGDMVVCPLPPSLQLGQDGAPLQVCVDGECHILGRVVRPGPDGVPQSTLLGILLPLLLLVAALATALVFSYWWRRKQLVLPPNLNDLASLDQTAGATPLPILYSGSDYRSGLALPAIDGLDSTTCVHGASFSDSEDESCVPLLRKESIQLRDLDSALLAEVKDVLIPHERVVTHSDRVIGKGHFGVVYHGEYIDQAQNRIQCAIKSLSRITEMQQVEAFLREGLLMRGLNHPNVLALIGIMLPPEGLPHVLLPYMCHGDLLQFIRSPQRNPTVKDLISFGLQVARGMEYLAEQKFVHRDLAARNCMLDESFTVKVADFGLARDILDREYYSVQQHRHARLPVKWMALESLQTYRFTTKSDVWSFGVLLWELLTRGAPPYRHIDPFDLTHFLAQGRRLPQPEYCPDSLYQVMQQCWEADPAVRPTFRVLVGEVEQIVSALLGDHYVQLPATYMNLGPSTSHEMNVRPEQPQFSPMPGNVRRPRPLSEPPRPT
Protocol: as §1

[17] = biological target: T13, ABL1 Y253F (Homo sapiens, UniProt P00519, Y253F); conditions: ATP Km, read-out: Percentage of inhibition
T13 construct: purchased Life Technologies (SelectScreen Whole Panel)
Protocol: as §1

[18] = biological target: T14, MAPKAPK3 (Homo sapiens, UniProt Q16644); conditions: ATP Km, read-out: Percentage of inhibition
T14 construct: purchased Life Technologies
T14 sequence (Q16644 whole entry): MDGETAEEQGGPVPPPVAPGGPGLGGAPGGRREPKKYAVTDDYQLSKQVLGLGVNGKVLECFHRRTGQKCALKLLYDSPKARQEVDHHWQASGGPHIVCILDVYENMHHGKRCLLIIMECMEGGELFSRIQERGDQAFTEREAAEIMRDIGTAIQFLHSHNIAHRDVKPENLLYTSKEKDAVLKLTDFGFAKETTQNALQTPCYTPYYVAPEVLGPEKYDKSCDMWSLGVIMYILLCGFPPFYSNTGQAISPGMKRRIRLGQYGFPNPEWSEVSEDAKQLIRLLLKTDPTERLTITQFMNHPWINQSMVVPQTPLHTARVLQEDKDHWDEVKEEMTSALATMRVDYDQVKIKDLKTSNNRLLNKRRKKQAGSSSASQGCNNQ
Protocol: as §1

[19] = biological target: T15, ADRBK2 (GRK3) (Homo sapiens, UniProt P35626); conditions: ATP Km, read-out: Percentage of inhibition
T15 construct: purchased Life Technologies (SelectScreen Whole Panel)
Protocol: as §1

[20] = biological target: T16, ROCK1 (Homo sapiens, UniProt Q13464); conditions: ATP Km, read-out: Percentage of inhibition
T16 construct: purchased Life Technologies (SelectScreen Whole Panel service)
Protocol: as §1

[21] = biological target: CAMK2A (CaMKII alpha) (Homo sapiens, UniProt Q9UQM7); conditions: ATP Km, read-out: Percentage of inhibition
Protocol: as §1

[22] = biological target: T17, KIT T670I (Homo sapiens, UniProt P10721, T670I); conditions: ATP Km, read-out: Percentage of inhibition
T17 construct: purchased Life Technologies
T17 sequence (P10721 26-976 T670I): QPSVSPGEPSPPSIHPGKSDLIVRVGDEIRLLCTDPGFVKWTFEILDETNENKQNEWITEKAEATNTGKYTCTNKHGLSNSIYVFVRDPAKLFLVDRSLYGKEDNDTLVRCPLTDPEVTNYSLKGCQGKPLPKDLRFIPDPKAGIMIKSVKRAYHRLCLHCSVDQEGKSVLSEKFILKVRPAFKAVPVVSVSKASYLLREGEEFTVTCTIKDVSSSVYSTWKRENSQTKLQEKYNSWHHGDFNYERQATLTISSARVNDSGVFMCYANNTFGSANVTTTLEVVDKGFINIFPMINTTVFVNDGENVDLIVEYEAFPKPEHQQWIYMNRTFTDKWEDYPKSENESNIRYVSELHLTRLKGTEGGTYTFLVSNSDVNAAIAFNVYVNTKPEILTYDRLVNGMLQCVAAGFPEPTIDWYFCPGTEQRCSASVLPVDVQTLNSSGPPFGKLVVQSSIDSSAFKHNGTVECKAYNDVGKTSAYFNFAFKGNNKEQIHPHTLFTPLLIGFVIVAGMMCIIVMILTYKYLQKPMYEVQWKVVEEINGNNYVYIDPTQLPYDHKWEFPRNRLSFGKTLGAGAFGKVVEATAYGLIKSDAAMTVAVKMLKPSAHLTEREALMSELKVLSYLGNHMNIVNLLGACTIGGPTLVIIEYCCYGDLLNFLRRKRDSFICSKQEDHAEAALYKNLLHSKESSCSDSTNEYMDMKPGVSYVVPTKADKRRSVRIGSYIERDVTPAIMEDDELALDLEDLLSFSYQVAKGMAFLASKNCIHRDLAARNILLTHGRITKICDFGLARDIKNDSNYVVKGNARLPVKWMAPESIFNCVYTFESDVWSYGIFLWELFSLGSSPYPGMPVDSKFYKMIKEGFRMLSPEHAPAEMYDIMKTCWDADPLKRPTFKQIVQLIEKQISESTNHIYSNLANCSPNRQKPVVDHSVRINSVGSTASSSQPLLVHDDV
Protocol: as §1

[23] = biological target: T18, AKT3 (PKB gamma) (Homo sapiens, UniProt Q9Y243); conditions: ATP Km, read-out: Percentage of inhibition
T18 construct: purchased Life Technologies
Protocol: as §1

[24] = biological target: T19, MAPK9 (JNK2) (Homo sapiens, UniProt P45984); conditions: ATP 100 µM, read-out: Percentage of inhibition
T19 construct: purchased Life Technologies (SelectScreen service)
Protocol: as §1

[25] = biological target: T20, CSNK1G2 (CK1 gamma 2) (Homo sapiens, UniProt P78368); conditions: ATP Km, read-out: Percentage of inhibition
T20 construct: purchased Life Technologies
Protocol: as §1

[26] = biological target: FRAP1 (mTOR) (Homo sapiens, UniProt P42345); conditions: ATP Km, read-out: Percentage of inhibition
Protocol: as §1

[27] = biological target: T21, CDK1/cyclin B (Homo sapiens, UniProt P06493); conditions: ATP Km, read-out: Percentage of inhibition
T21 construct: purchased Life Technologies
Protocol: as §1

[28] = biological target: KSR2 (Homo sapiens, UniProt Q6VAB6); conditions: ATP Km, read-out: Percentage of inhibition
Protocol: as §1

[29] = biological target: T22, BLK (Homo sapiens, UniProt P51451); conditions: ATP Km, read-out: Percentage of inhibition
T22 construct: purchased Life Technologies (SelectScreen service)
Protocol: as §1

[30] = biological target: PAK4 (Homo sapiens, UniProt O96013); conditions: ATP Km, read-out: Percentage of inhibition
Protocol: as §1

[31] = biological target: CSNK1G1 (CK1 gamma 1) (Homo sapiens, UniProt Q9HCP0); conditions: ATP Km, read-out: Percentage of inhibition
Protocol: as §1

[32] = biological target: PDGFRA T674I (Homo sapiens, UniProt P16234, T674I); conditions: ATP Km, read-out: Percentage of inhibition
Protocol: as §1

[33] = biological target: T23, MAP3K8 (COT) (Homo sapiens, UniProt P41279); conditions: ATP 100 µM, read-out: Percentage of inhibition
T23 construct: purchased Life Technologies (SelectScreen service)
Protocol: as §1

[34] = biological target: T24, MAPKAPK2 (Homo sapiens, UniProt P49137); conditions: ATP Km, read-out: Percentage of inhibition
T24 construct: purchased Life Technologies
T24 sequence (P49137 whole entry): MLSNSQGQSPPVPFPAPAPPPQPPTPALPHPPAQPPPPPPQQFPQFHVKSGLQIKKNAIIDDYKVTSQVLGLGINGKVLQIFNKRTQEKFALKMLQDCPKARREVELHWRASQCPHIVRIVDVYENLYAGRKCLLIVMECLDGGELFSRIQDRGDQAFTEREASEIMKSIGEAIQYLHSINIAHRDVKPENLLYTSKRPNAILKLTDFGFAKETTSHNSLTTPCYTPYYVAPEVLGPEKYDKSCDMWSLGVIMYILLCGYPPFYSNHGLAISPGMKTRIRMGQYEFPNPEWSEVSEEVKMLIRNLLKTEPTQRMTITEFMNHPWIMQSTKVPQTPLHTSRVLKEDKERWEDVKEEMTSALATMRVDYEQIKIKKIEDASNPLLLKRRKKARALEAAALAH
Protocol: as §1

[35] = biological target: T25, NEK2 (Homo sapiens, UniProt P51955); conditions: ATP Km, read-out: Percentage of inhibition
T25 construct: purchased Life Technologies (SelectScreen Whole Panel)
Protocol: as §1

[36] = biological target: T26, FLT3 (Homo sapiens, UniProt P36888); conditions: ATP Km, read-out: Percentage of inhibition
T26 construct: purchased Life Technologies
Protocol: as §1

[37] = biological target: T27, SYK (Homo sapiens, UniProt P43405); conditions: ATP Km, read-out: Percentage of inhibition
T27 construct: purchased Life Technologies (SelectScreen service)
Protocol: as §1

[38] = biological target: T28, INSRR (IRR) (Homo sapiens, UniProt P14616); conditions: ATP Km, read-out: Percentage of inhibition
T28 construct: purchased Life Technologies (SelectScreen Whole Panel)
Protocol: as §1

For COc1ccc2[nH]c3c(=O)[nH]c4ccc(O)cc4c3c2c1 [Compound 55, 2-Hydroxy-10-methoxy-5,7-dihydro-6H-indolo[2,3-c]quinolin-6-one], which inhibition at 1 µM [1] is on record?
Its inhibition at 1 µM is 42%.

And the inhibition at 1 µM [2]?
Its inhibition at 1 µM is 9%.

What about the inhibition at 1 µM [3] of the same compound?
Its inhibition at 1 µM is 46%.

What about the inhibition at 1 µM [4] of the same compound?
The inhibition at 1 µM was 0%.

What about the inhibition at 1 µM [5] of the same compound?
The inhibition at 1 µM was 8%.

And the inhibition at 1 µM [6]?
Its inhibition at 1 µM is 25%.

What about the inhibition at 1 µM [7] of the same compound?
Its inhibition at 1 µM is 74%.

What about the inhibition at 1 µM [8] of the same compound?
Its inhibition at 1 µM is 10%.

What about the inhibition at 1 µM [9] of the same compound?
Its inhibition at 1 µM is 36%.

What about the inhibition at 1 µM [10] of the same compound?
The inhibition at 1 µM was 8%.

And the inhibition at 1 µM [11]?
The inhibition at 1 µM was 6%.

And the inhibition at 1 µM [12]?
Its inhibition at 1 µM is 6%.

What about the inhibition at 1 µM [13] of the same compound?
The inhibition at 1 µM was 2%.

What about the inhibition at 1 µM [14] of the same compound?
The inhibition at 1 µM was 70%.

What about the inhibition at 1 µM [15] of the same compound?
The inhibition at 1 µM was 4%.

What about the inhibition at 1 µM [16] of the same compound?
The inhibition at 1 µM was 6%.

What about the inhibition at 1 µM [17] of the same compound?
Its inhibition at 1 µM is 55%.

And the inhibition at 1 µM [18]?
The inhibition at 1 µM was 3%.

What about the inhibition at 1 µM [19] of the same compound?
Its inhibition at 1 µM is 0%.

And the inhibition at 1 µM [20]?
The inhibition at 1 µM was 11%.

And the inhibition at 1 µM [21]?
The inhibition at 1 µM was 20%.

And the inhibition at 1 µM [22]?
The inhibition at 1 µM was 4%.

And the inhibition at 1 µM [23]?
Its inhibition at 1 µM is 3%.

What about the inhibition at 1 µM [24] of the same compound?
Its inhibition at 1 µM is 12%.

What about the inhibition at 1 µM [25] of the same compound?
Its inhibition at 1 µM is 33%.

And the inhibition at 1 µM [26]?
Its inhibition at 1 µM is 6%.

And the inhibition at 1 µM [27]?
Its inhibition at 1 µM is 35%.

And the inhibition at 1 µM [28]?
Its inhibition at 1 µM is 7%.

What about the inhibition at 1 µM [29] of the same compound?
The inhibition at 1 µM was 86%.

And the inhibition at 1 µM [30]?
Its inhibition at 1 µM is 15%.

And the inhibition at 1 µM [31]?
Its inhibition at 1 µM is 20%.

And the inhibition at 1 µM [32]?
The inhibition at 1 µM was 6%.

What about the inhibition at 1 µM [33] of the same compound?
Its inhibition at 1 µM is 91%.

And the inhibition at 1 µM [34]?
Its inhibition at 1 µM is 2%.

And the inhibition at 1 µM [35]?
The inhibition at 1 µM was -11%.

And the inhibition at 1 µM [36]?
Its inhibition at 1 µM is 93%.

What about the inhibition at 1 µM [37] of the same compound?
Its inhibition at 1 µM is 82%.

And the inhibition at 1 µM [38]?
Its inhibition at 1 µM is 52%.
